This is an account of results in patent US7544693B2 (priority 2003, dated 2009).

The target in this test is α7 nAChR subtype (Rattus norvegicus, UniProt Q05941). In kind it is binding. To be noted: read-out: KD of radioligand (saturation curves, one site model).
α7 nAChR subtype, sequence (Q05941 23-502 limits assumed): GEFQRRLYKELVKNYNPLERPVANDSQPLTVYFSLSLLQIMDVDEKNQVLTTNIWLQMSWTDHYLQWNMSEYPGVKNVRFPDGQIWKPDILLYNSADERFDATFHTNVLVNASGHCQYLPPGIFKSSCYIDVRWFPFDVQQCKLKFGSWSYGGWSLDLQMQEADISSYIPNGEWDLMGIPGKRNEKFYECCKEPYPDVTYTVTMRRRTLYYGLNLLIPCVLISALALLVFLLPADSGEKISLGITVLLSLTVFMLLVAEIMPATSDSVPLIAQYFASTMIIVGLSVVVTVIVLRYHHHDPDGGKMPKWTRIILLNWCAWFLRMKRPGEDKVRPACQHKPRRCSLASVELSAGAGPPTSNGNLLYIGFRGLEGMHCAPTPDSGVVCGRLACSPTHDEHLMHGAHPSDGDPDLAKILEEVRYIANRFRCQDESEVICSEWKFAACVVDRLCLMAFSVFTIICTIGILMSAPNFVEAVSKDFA

On to [^125I]-α-Bungarotoxin [[^125I]-α-BTX], for which the Kd was determined as 1.67 nM.
